{
  "source": "patent US20040057913A1",
  "about": "“Antioxidant and skin preparations for external use” (priority 2000, published 2004)",
  "test_system": "ICR male mouse",
  "assay": "Mouse ear swelling suppressing activity (TPA-induced edema)",
  "type": "in vivo",
  "details": "applied to the ear 30 minutes before the TPA application; measured 4 hours after TPA; Mozuku extract 0.25 or 0.5 mg/ear, indomethacin 0.2 mg/ear (FIG. 4)",
  "protocol": "Mouse ear swelling suppressing activity of the Mozuku extract was examined as follows. The thickness of the ear of an ICR male mouse (age: 5 weeks) was measured using a thickness gauge (Digimatic Indicator 543, manufactured by Mitsutoyo Co., Ltd.). The Mozuku extract was applied to the ear in the amount of 0.25 mg/ear or 0.5 mg/ear. As a comparative test, an indomethacin solution, prepared by dissolving indomethacin at a concentration of 1.0% in 70% acetone, was applied to the mouse ear in the amount of 0.2 mg/ear. 30 minutes after the application, 10 μl of a […] solution of 12-O-tetradecanoylphorbol-13-acetate (TPA) in 70% acetone was applied to the in and out sides of the mouse ear to induce a skin reaction. The thickness of the ear skin was measured after 4 hours at which the value of the swelling became the maximum. The ratio of the measured thickness to the thickness of the ear skin before the edema induction was calculated as the ratio of edema. The thickness of both the right and left ear skins was measured and the values were averaged to determine the ear skin thickness of the mouse.",
  "data": [
    {"molecule": "COc1ccc2c(c1)c(CC(=O)O)c(C)n2C(=O)c1ccc(Cl)cc1", "note": "[indomethacin]", "values": [
      {"measurement": "edema suppressing effect (ratio of edema, ear skin thickness)", "result": "remarkable edema suppressing effect"}
    ]}
  ]
}
